# Patent US6737383B1, “Herbicidal oxadiazolidines” (priority 1999, dated 2004)
# Key:
# [1] = test system: duck salad; assay: Test B flood test duck salad; assay type: in vivo, Heteranthera limosa; conditions: Pre-emergence
# Method in brief: (§1)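 Each value is a visual injury score relative to controls, with 10 meaning complete control and 0 no effect. Evaluation took place twelve to sixteen days after the 2-leaf-stage plants were treated and kept in the greenhouse.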
# [2] = test system: sugar beet; assay: Test B pre/postemergence sugar beet; assay type: in vivo, Beta vulgaris
# Method in brief: (§2)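 Response is a visual 0-to-10 score relative to untreated plants, where 0 means no effect and 10 means complete control, taken twelve to sixteen days after application. Treatments went onto soil at planting and onto foliage of 1- to 4-leaf plants, using a surfactant-containing non-phytotoxic solvent.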
# [3] = test system: morningglory; assay: Test B pre/postemergence morningglory; assay type: in vivo, Ipomoea hederacea
# Method in brief: as §2
# [4] = test system: giant foxtail; assay: Test B pre/postemergence giant foxtail; assay type: in vivo, Setaria faberii
# Method in brief: as §2
# [5] = test system: wild oat; assay: Test B pre/postemergence wild oat; assay type: in vivo, Avena fatua
# Method in brief: as §2
# [6] = test system: pigweed; assay: Test B pre/postemergence pigweed; assay type: in vivo, Amaranthus retroflexus
# Method in brief: as §2
# [7] = test system: cocklebur; assay: Test B pre/postemergence cocklebur; assay type: in vivo, Xanthium strumarium
# Method in brief: as §2
# [8] = test system: crabgrass; assay: Test B pre/postemergence crabgrass; assay type: in vivo, Digitaria sanguinalis
# Method in brief: as §2
# [9] = test system: smallflower flatsedge; assay: Test B flood test smallflower flatsedge; assay type: in vivo, Cyperus difformis; conditions: Pre-emergence
# Method in brief: as §1
# [10] = test system: rice; assay: Test B flood test rice; assay type: in vivo, Oryza sativa; conditions: Pre-emergence
# Method in brief: as §1
# [11] = test system: bamyardgrass; assay: Test B flood test barnyardgrass; assay type: in vivo, Echinochloa crus-galli; conditions: Pre-emergence
# Method in brief: as §1
# [12] = test system: velvetleaf; assay: Test B pre/postemergence velvetleaf; assay type: in vivo, Abutilon theophrasti
# Method in brief: as §2
# [13] = test system: purple nutsedge; assay: Test B pre/postemergence purple nutsedge; assay type: in vivo, Cyperus rotundus
# Method in brief: as §2
# [14] = test system: blackgrass; assay: Test B pre/postemergence blackgrass; assay type: in vivo, Alopecurus myosuroides
# Method in brief: as §2
# [15] = test system: bedstraw; assay: Test B pre/postemergence bedstraw; assay type: in vivo, Galium aparine; conditions: Postemergence, Rate 250 g/ha; scale 0 to 10, 0 is no effect, 10 is complete control
# Method in brief: as §2
# [16] = test system: corn; assay: Test B pre/postemergence corn; assay type: in vivo, Zea mays
# Method in brief: as §2
# [17] = test system: rape; assay: Test B pre/postemergence rape; assay type: in vivo, Brassica napus
# Method in brief: as §2
# [18] = test system: wheat; assay: Test B pre/postemergence wheat; assay type: in vivo, Triticum aestivum
# Method in brief: as §2
# [19] = test system: soybean; assay: Test B pre/postemergence soybean; assay type: in vivo, Glycine max
# Method in brief: as §2
# [20] = test system: surinam grass; assay: Test B pre/postemergence surinam grass; assay type: in vivo, Brachiaria decumbens
# Method in brief: as §2
# [21] = Rate 62 g/ha, flood test species, visual evaluation after twelve to sixteen days
# [22] = Rate 250 g/ha, flood-test species, scale 0 to 10, 0 is no effect, 10 is complete control
# [23] = Rate 500 g/ha, flood test species, scale 0 to 10 (0 no effect, 10 complete control)
# [24] = Postemergence, Rate 250 g/ha, scale 0 to 10, 0 is no effect, 10 is complete control
# [25] = Postemergence, Rate 500 g/ha, scale of 0 to 10 where 0 is no effect and 10 is complete control
# [26] = Preemergence, Rate 62 g/ha, scale 0 to 10 (0 no effect, 10 complete control)
# [27] = Preemergence, Rate 125 g/ha, scale of 0 to 10 where 0 is no effect and 10 is complete control
# [28] = Preemergence, Rate 250 g/ha, scale 0 to 10, 0 is no effect, 10 is complete control
# [29] = Preemergence, Rate 500 g/ha, scale of 0 to 10 where 0 is no effect and 10 is complete control
# [30] = Rate 62 g/ha, Postemergence, scale of 0 to 10 where 0 is no effect and 10 is complete control
# [31] = Postemergence, Rate 125 g/ha, scale 0 to 10, 0 is no effect, 10 is complete control
# [32] = Preemergence, Rate 250 g/ha, scale of 0 to 10 where 0 is no effect and 10 is complete control
compound,measurement,setting,value
CC(C)Cn1c(=O)on(C(=O)N(c2ccc(F)cc2F)C(C)C)c1=O [Compound 394],"Plant response rating, Ducksalad (0 to 10 scale, 0 is no effect, 10 is complete control)",[1]; [21],0
same,Ducksalad plant response rating,[1]; [22],3
same,Ducksalad plant response rating,[1]; [23],3
same,"Plant response rating, Sugarbeets",[2]; [24],1
same,Sugarbeets plant response rating,[2]; [25],5
same,"Plant response rating, Sugarbeets",[2]; [26],0
same,"Plant response rating, Sugarbeets",[2]; [27],3
same,Sugarbeets plant response rating,[2]; [28],4
same,Sugarbeets plant response rating,[2]; [29],7
same,Sugarbeets plant response rating,[2]; [30],0
same,"Plant response rating, Morningglory",[3]; [24],6
same,Morningglory plant response rating,[3]; [25],7
same,"Plant response rating, Morningglory",[3]; [26],0
same,"Plant response rating, Morningglory",[3]; [27],0
same,Morningglory plant response rating,[3]; [28],0
same,Morningglory plant response rating,[3]; [29],2
same,Morningglory plant response rating,[3]; [30],0
same,"Plant response rating, Giant foxtail",[4]; [31],7
same,"Plant response rating, Giant foxtail",[4]; [24],8
same,Giant foxtail plant response rating,[4]; [25],9
same,"Plant response rating, Giant foxtail",[4]; [26],9
same,"Plant response rating, Giant foxtail",[4]; [27],10
same,Giant foxtail plant response rating,[4]; [28],10
same,Giant foxtail plant response rating,[4]; [29],10
same,Wild oats plant response rating,[5]; [25],6
same,"Plant response rating, Wild oats",[5]; [26],4
same,"Plant response rating, Wild oats",[5]; [27],6
same,Wild oats plant response rating,[5]; [28],10
same,Wild oats plant response rating,[5]; [29],10
same,Wild oats plant response rating,[5]; [30],0
same,"Plant response rating, Redroot pigweed",[6]; [24],2
same,Redroot pigweed plant response rating,[6]; [25],7
same,"Plant response rating, Redroot pigweed",[6]; [26],1
same,"Plant response rating, Redroot pigweed",[6]; [27],2
same,Redroot pigweed plant response rating,[6]; [28],Redroot pigwee 6
same,Redroot pigweed plant response rating,[6]; [29],10
same,Redroot pigweed plant response rating,[6]; [30],0
same,"Plant response rating, Cocklebur",[7]; [31],0
same,"Plant response rating, Cocklebur",[7]; [24],0
same,Cocklebur plant response rating,[7]; [25],4
same,"Plant response rating, Cocklebur",[7]; [26],0
same,"Plant response rating, Cocklebur",[7]; [27],0
same,Cocklebur plant response rating,[7]; [28],0
same,Cocklebur plant response rating,[7]; [29],0
same,Cocklebur plant response rating,[7]; [30],0
same,"Plant response rating, Crabgrass",[8]; [31],2
same,"Plant response rating, Crabgrass",[8]; [24],8
same,Crabgrass plant response rating,[8]; [25],9
same,"Plant response rating, Crabgrass",[8]; [26],9
same,"Plant response rating, Crabgrass",[8]; [27],10
same,Crabgrass plant response rating,[8]; [28],10
same,Crabgrass plant response rating,[8]; [29],10
same,Crabgrass plant response rating,[8]; [30],2
same,"Plant response rating, S. Flatsedge (0 to 10 scale, 0 is no effect, 10 is complete control)",[9]; [21],4
same,S. Flatsedge plant response rating,[9]; [22],8
same,S. Flatsedge plant response rating,[9]; [23],8
same,"Plant response rating, Rice (0 to 10 scale, 0 is no effect, 10 is complete control)",[10]; [21],1
same,Rice plant response rating,[10]; [22],1
same,Rice plant response rating,[10]; [23],1
same,"Plant response rating, Barnyardgrass (0 to 10 scale, 0 is no effect, 10 is complete control)",[11]; [21],0
same,Barnyardgrass plant response rating,[11]; [22],6
same,Barnyardgrass plant response rating,[11]; [23],8
same,"Plant response rating, Velvetleaf",[12]; [24],0
same,Velvetleaf plant response rating,[12]; [25],3
same,"Plant response rating, Velvetleaf",[12]; [26],1
same,"Plant response rating, Velvetleaf",[12]; [27],5
same,Velvetleaf plant response rating,[12]; [28],7
same,Velvetleaf plant response rating,[12]; [29],7
same,Velvetleaf plant response rating,[12]; [30],0
same,"Plant response rating, Nutsedge",[13]; [24],0
same,"Plant response rating, Nutsedge",[13]; [26],0
same,"Plant response rating, Nutsedge",[13]; [27],0
same,Nutsedge plant response rating,[13]; [28],2
same,Nutsedge plant response rating,[13]; [29],6
same,Nutsedge plant response rating,[13]; [30],0
same,"Plant response rating, Blackgrass",[14]; [24],9
same,"Plant response rating, Blackgrass",[14]; [26],7
same,"Plant response rating, Blackgrass",[14]; [27],8
same,Blackgrass plant response rating,[14]; [32],10
same,Blackgrass plant response rating,[14]; [29],10
same,Blackgrass plant response rating,[14]; [30],2
same,"Plant response rating, Bedstraw",[15],5
same,"Plant response rating, Corn",[16]; [31],0
same,"Plant response rating, Corn",[16]; [24],0
same,Corn plant response rating,[16]; [25],0
same,"Plant response rating, Corn",[16]; [26],0
same,"Plant response rating, Corn",[16]; [27],0
same,Corn plant response rating,[16]; [28],3
same,Corn plant response rating,[16]; [29],5
same,Corn plant response rating,[16]; [30],0
same,"Plant response rating, Rape",[17]; [24],0
same,"Plant response rating, Rape",[17]; [26],0
same,"Plant response rating, Rape",[17]; [27],2
same,Rape plant response rating,[17]; [28],7
same,Rape plant response rating,[17]; [29],9
same,Rape plant response rating,[17]; [30],0
same,Wheat plant response rating,[18]; [25],4
same,"Plant response rating, Wheat",[18]; [26],0
same,"Plant response rating, Wheat",[18]; [27],1
same,Wheat plant response rating,[18]; [28],6
same,Wheat plant response rating,[18]; [29],9
same,Wheat plant response rating,[18]; [30],0
same,"Plant response rating, Soybean",[19]; [24],5
same,Soybean plant response rating,[19]; [25],5
same,"Plant response rating, Soybean",[19]; [26],0
same,Soybean plant response rating,[19]; [28],1
same,Soybean plant response rating,[19]; [29],2
same,Soybean plant response rating,[19]; [30],3
same,"Plant response rating, B. signalgrass",[20]; [31],1
same,"Plant response rating, B. signalgrass",[20]; [24],2
same,B. signalgrass plant response rating,[20]; [25],9
same,"Plant response rating, B. signalgrass",[20]; [26],2
same,"Plant response rating, B. signalgrass",[20]; [27],5
same,B. signalgrass plant response rating,[20]; [32],8
same,B. signalgrass plant response rating,[20]; [29],10
same,B. signalgrass plant response rating,[20]; [30],0
